Experimental data taken from US20250163119A1, “COMPOUNDS FOR THE TREATMENT OF DIABETES OR OBESITY” (Eli Lilly and Company, priority 2023, published 2025).
*1 amine or outer side, *2 acyl side, *3 side chain or, on linkers, in order; H or OH if unused. Where a SMILES comes first, the peptide text is derived from it. Side-chain parts run from the residue outwards. [ ]: non-standard residue; d: D form. The star is where a group is joined. C20 diacid = O=C(O)CCCCCCCCCCCCCCCCCCC(=O)*; γGlu = O=C(O)[C@H](CCC(=O)[*:2])N[*:1]; εLys = N[C@@H](CCCCN[*:1])C(=O)[*:2]; αMeL = CC(C)C[C@](C)(N)C(=O)O; AEEA = NCCOCCOCC(=O)O; Aib = CC(C)(N)C(=O)O; Ahx = NCCCCCC(=O)O; βAla = NCCC(=O)O

Columns and labels:
human CRHR1 = target: T1, human CRHR1 (Homo sapiens, UniProt P34998); experiment: Human CRHR1 cAMP assay (HTRF) in HEK293 cells stably expressing human CRHR1; type: cell-based; details: HEK293 cells overexpressing human CRHR1; relative EC50, maximum 66 nM human UCN1; mean ± SE; read-out: hCRHR1 cAMP EC50 (pM, ± SE)
T1 construct: expressed in transfected cells
T1 sequence (P34998 24-415): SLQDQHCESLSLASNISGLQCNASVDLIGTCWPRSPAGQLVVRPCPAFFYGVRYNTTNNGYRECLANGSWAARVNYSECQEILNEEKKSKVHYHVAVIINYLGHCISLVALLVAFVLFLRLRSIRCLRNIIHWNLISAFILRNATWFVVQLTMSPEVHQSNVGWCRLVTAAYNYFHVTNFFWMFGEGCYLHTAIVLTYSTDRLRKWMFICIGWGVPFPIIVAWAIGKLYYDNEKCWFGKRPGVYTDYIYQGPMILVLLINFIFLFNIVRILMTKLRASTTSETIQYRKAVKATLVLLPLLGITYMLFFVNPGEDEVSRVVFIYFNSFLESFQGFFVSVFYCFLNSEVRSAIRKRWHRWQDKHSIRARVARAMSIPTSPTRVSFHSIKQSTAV
Procedure: (§1) The corticotropin-releasing hormone (CRH) receptor 1 and 2 (CRHR1 and CRHR2) are GPCRs that were functionally coupled to Gs proteins. Stimulation of these receptors results in an increased production of intracellular cAMP, which can be detected using standard in vitro technologies. In vitro activity of peptides was measured by the amount of cAMP formed in human CRHR1 and CRHR2 overexpressed cells.
(§2) Human CRHR1 and CRHR2 receptors were stably expressed in human embryonic kidney cells (HEK293) under control of a pcDNA expression vector. The HEK293 cell line was cultured in DMEM 1× (Gibco, 93-0152DK) supplemented with 10% FBS, 1 mM sodium pyruvate, 1×MEM NEAA, 1× GlutaMAX and 10 mM HEPES. The plasmids of human CRHR1-pQCXIP (T7364) and human CRHR2b-R2683puro (T16761) DNA were transfected into HEK293 cells using Lipo fectAMINE 3000 Transfection reagent (Invitrogen, L3000001). After 20 days under selection, the mRNA levels from different clones were measured to confirm the expression of human CRHR1 and CRHR2 genes. To determine the function of over-expressed CRHR cells, the intracellular cAMP levels in response to human UCN1 and UCN2 were measured and compared to the expression of CRHR1 and CRHR2 mRNA in each clone.
(§3) Human CRHR1 cells were cultured in DMEM 1× (Gibco, 93-0152DK) supplemented with 10% FBS, 1 mM sodium pyruvate, 1×MEM NEAA, 1×GlutaMAX, 10 mM HEPES, and 800 μg/ml G418. Human CRHR2 cells were cultured at the same media (DMEM 1×, 10% FBS, 1 mM sodium pyruvate, 1×MEM NEAA, 1×GlutaMAX, 10 mM HEPES) in the presence of 0.5 ug/mL puromycin. Cultured cells were grown to 90% confluency and harvested. The cells were frozen at 10×10e6/ml in a mixture of […] fetal bovine serum plus 7% DMSO and stored in liquid nitrogen until use.
(§4) On the day of the assay, the frozen cells were thawed and diluted in assay buffer (Phenol Red free MEM (Corning, 17-305-CV, lot #32121010), 0.1% Casein (Sigma C4765, lot #SLCG2120), 5 mM HEPES pH 7.4 containing 0.25 mM IBMX). 10 ul of human CRHR1 cells (25,000 cells) or 10 μL of human CRHR2 cells (5,000 cells) were dispensed into each well of white poly-D-lysine coated 384-well plates (Corning cat #354661). Test compounds diluted in DMSO were added (200 nL/well) in a 1:3 dilution series using ECHO acoustic liquid handler (Beckman). The mixture of cells and test compounds were incubated at 37° C. for 1 hour for the hCRHR1 plate, while the CRHR2 plates were incubated at room temperature for 30 min.
(§5) The amount of intracellular cAMP was quantitated using HTRF technology (Homogeneous Time Resolved Fluorescence; Cisbio) as per vendor instructions. Briefly, 10 uL CAMP-d2 conjugate and 10 uL anti-CAMP-cryptate conjugate in lysis buffer were incubated with the treated cells at room temperature for 60 min. The HTRF signal was immediately detected using an Envision plate reader (Perkin-Elmer) to calculate the ratio of fluorescence at 665 to 620 nm.
(§6) Raw fluorescence data for concentration curves of the peptides in Table 2 and Table 3 were converted to cAMP amount (pmol/well) using a cAMP standard curve generated for each experiment.

human CRHR2 = target: T2, human CRHR2 (Homo sapiens, UniProt Q13324); experiment: Human CRHR2 cAMP assay (HTRF) in HEK293 cells stably expressing human CRHR2; type: cell-based; details: HEK293 cells overexpressing human CRHR2; relative EC50, maximum 10 nM human UCN2; mean ± SE; read-out: hCRHR2 cAMP EC50 (pM, ± SE)
T2 construct: expressed in transfected cells
T2 sequence (Q13324 1-438 isoform Q13324-2): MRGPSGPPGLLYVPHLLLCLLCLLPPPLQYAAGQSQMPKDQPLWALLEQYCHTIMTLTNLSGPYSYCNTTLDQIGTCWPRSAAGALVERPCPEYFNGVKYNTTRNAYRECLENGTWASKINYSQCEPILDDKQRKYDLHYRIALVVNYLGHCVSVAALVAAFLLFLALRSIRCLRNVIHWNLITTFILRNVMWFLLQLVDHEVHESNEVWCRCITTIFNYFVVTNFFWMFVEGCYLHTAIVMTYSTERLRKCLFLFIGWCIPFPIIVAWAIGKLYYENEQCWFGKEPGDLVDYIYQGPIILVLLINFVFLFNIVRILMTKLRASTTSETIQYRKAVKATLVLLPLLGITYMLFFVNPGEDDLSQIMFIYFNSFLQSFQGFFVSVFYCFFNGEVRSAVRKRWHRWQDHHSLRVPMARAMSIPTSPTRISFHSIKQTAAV
Procedure: as §1, §2, §3, §4, §5, §6

Row | Compound | EC50 (human CRHR1) [pM] | EC50 (human CRHR2) [pM]
1 | Ac-GSPSIVTS[αMeL]DVPT[Aib][αMeL]LQKILEQERAEKARQQAK([γGlu-AEEA-AEEA-εLys-C20 diacid])EAAEILAQV-NH2 [SEQ ID NO: 17, Ac-GSPSIVTS αMeL DVPT Aib αMeL LQKILEQERAEKARQQAK(γE-(2-[2-(2-Amino-ethoxy)-ethoxy]-acetyl)2-ϵK-CO-(CH2)18-CO2H)EAAEILAQV-NH2] | > 1e+07 | 9.5 ± 0.9
2 | Ac-GSPSIVTS[αMeL]DVPT[Aib][αMeL]LQKILEQERAEKARQQAK([Ahx-AEEA-γGlu-C20 diacid])EAAEILAQV-NH2 [SEQ ID NO: 4, Ac-GSPSIVTS αMeL DVPT Aib αMeL LQKILEQERAEKARQQAK(Ahx-(2-[2-(2-Amino-ethoxy)-ethoxy]-acetyl)-γE-CO-(CH2)18-CO2H)EAAEILAQV-NH2] | > 1e+07 | 20.3 ± 2.9
3 | Ac-GSPSIVTS[αMeL]DVPT[Aib][αMeL]LQKILEQERAEKARQQAKEAAEILAQV-NH2 [SEQ ID NO: 20] | > 1e+07 | 15.3 ± 1.4
4 | Ac-GSPSIVTS[αMeL]DVPT[Aib][αMeL]LQKILEQERAEKARQQAK([Gly-βAla-βAla-βAla-βAla-γGlu-C20 diacid])EAAEILAQV-NH2 [SEQ ID NO: 8, Ac-GSPSIVTS αMeL DVPT Aib αMeL LQKILEQERAEKARQQAK(G-(βA)4-γE-CO-(CH2)18-CO2H)EAAEILAQV-NH2] | > 1e+07 | 11 ± 0.9
5 | {C20 diacid}-K[AEEA][γGlu]GSPSIVTS[αMeL]DVPT[Aib][αMeL]LQKILEQERAEKARQQATEAAEILAQV-NH2 [SEQ ID NO: 26] | > 1e+07 | 6.9 ± 0.7
6 | CC[C@H](C)[C@H](NC(C)=O)C(=O)N[C@H](C(=O)N[C@H](C(=O)N[C@@H](CO)C(=O)N[C@@](C)(CC(C)C)C(=O)N[C@@H](CC(=O)O)C(=O)N[C@@H](C(=O)N1CCC[C@H]1C(=O)N[C@H](C(=O)NCC(=O)N[C@@](C)(CC(C)C)C(=O)N[C@@H](CC(C)C)C(=O)N[C@@H](CCC(N)=O)C(=O)N[C@H](C(=O)N[C@@H](CCCCN)C(=O)N[C@@H](CC(C)C)C(=O)N[C@@H](CCC(=O)O)C(=O)N[C@@H](CCC(N)=O)C(=O)N[C@@H](CCC(=O)O)C(=O)N[C@@H](CCCNC(=N)N)C(=O)N[C@@H](C)C(=O)N[C@@H](CCC(=O)O)C(=O)N[C@@H](CCCCN)C(=O)N[C@@H](C)C(=O)N[C@@H](CCCNC(=N)N)C(=O)N[C@@H](CCC(N)=O)C(=O)N[C@@H](CCC(N)=O)C(=O)N[C@@H](C)C(=O)N[C@@H](CCCCNC(=O)CC[C@H](NC(=O)CC[C@H](NC(=O)COCCOCCNC(=O)CCCCCCCCCCCCCCCCCCC(=O)O)C(=O)O)C(=O)O)C(=O)N[C@@H](CCC(=O)O)C(=O)N[C@@H](CC(N)=O)C(=O)N[C@H](C(=O)N[C@@H](CCC(=O)O)C(=O)N[C@H](C(=O)N[C@@H](CC(C)C)C(=O)N[C@@H](C)C(=O)N[C@@H](CCC(N)=O)C(=O)N[C@H](C(N)=O)C(C)C)[C@@H](C)CC)[C@@H](C)O)[C@@H](C)CC)[C@@H](C)O)C(C)C)[C@@H](C)O)C(C)C [SEQ ID NO: 31, Ac-IVTS αMeL D (D-Val) PTG αMeL LQIKLEQERAEKARQQAK((γE)2-(2-[2-(2-Amino-ethoxy)-ethoxy]-acetyl)-CO-(CH2)18-CO2H)ENTEILAQV-NH2] (Ac-IVTS[αMeL]D[dV]PTG[αMeL]LQIKLEQERAEKARQQAK([γGlu-γGlu-AEEA-C20 diacid])ENTEILAQV-NH2) | > 1e+07 | 4.5 ± 0.7
7 | Ac-GSPSIVTS[αMeL]DVPT[Aib][αMeL]LQKILEQERAEKARQQAK([γGlu-Pro-Pro-Pro-εLys-C20 diacid])EAAEILAQV-NH2 [SEQ ID NO: 14, Ac-GSPSIVTS αMeL DVPT Aib αMeL LQKILEQERAEKARQQAK(γE-PPP-EK-CO-(CH2)18-CO2H)EAAEILAQV-NH2] | > 1e+07 | 8.3 ± 0.5

Next, values leading:

Row | EC50 (human CRHR1) [pM] | EC50 (human CRHR2) [pM] | Compound
8 | > 1e+07 | 5.7 ± 0.1 | CC[C@H](C)[C@H](NC(C)=O)C(=O)N[C@H](C(=O)N[C@H](C(=O)N[C@@H](CO)C(=O)N[C@@](C)(CC(C)C)C(=O)N[C@@H](CC(=O)O)C(=O)N[C@@H](C(=O)N1CCC[C@H]1C(=O)N[C@H](C(=O)NCC(=O)N[C@@](C)(CC(C)C)C(=O)N[C@@H](CC(C)C)C(=O)N[C@@H](CCC(N)=O)C(=O)N[C@H](C(=O)N[C@@H](CCCCN)C(=O)N[C@@H](CC(C)C)C(=O)N[C@@H](CCC(=O)O)C(=O)N[C@@H](CCC(N)=O)C(=O)N[C@@H](CCC(=O)O)C(=O)N[C@@H](CCCNC(=N)N)C(=O)N[C@@H](C)C(=O)N[C@@H](CCC(=O)O)C(=O)N[C@@H](CCCCN)C(=O)N[C@@H](C)C(=O)N[C@@H](CCCNC(=N)N)C(=O)N[C@@H](CCC(N)=O)C(=O)N[C@@H](CCC(N)=O)C(=O)N[C@@H](C)C(=O)N[C@@H](CCCCNC(=O)CC[C@H](NC(=O)COCCOCCNC(=O)CC[C@H](NC(=O)CCCCCCCCCCCCCCCCCCC(=O)O)C(=O)O)C(=O)O)C(=O)N[C@@H](CCC(=O)O)C(=O)N[C@@H](CC(N)=O)C(=O)N[C@H](C(=O)N[C@@H](CCC(=O)O)C(=O)N[C@H](C(=O)N[C@@H](CC(C)C)C(=O)N[C@@H](C)C(=O)N[C@@H](CCC(N)=O)C(=O)N[C@H](C(N)=O)C(C)C)[C@@H](C)CC)[C@@H](C)O)[C@@H](C)CC)[C@@H](C)O)C(C)C)[C@@H](C)O)C(C)C [SEQ ID NO: 30, Ac-IVTS αMeL D (D-Val) PTG αMeL LQIKLEQERAEKARQQAK(γE-(2-[2-(2-Amino-ethoxy)-ethoxy]-acetyl)-γE-CO-(CH2)18-CO2H)ENTEILAQV-NH2] (Ac-IVTS[αMeL]D[dV]PTG[αMeL]LQIKLEQERAEKARQQAK([γGlu-AEEA-γGlu-C20 diacid])ENTEILAQV-NH2)
9 | > 1e+07 | 13 ± 1.1 | Ac-PPPIVTS[αMeL]D[dV]PT[Aib][αMeL]LQK[Aib]LEQERAEKARQQAK([γGlu-AEEA-εLys-C20 diacid])ENTEILAQV-NH2 [SEQ ID NO: 46, Ac-PPPIVTS αMeL D (D-Val) PT Aib αMeL LQK Aib LEQERAEKARQQAK(γE-(2-[2-(2-Amino-ethoxy)-ethoxy]-acetyl)-ϵK-CO-(CH2)18-CO2H)ENTEILAQV-NH2]
10 | > 1e+07 | 10.1 ± 1.1 | Ac-GSPSIVTS[αMeL]DVPT[Aib][αMeL]LQKILEQERAEKARQQAK([βAla-Ser-βAla-Ser-γGlu-C20 diacid])EAAEILAQV-NH2 [SEQ ID NO: 10, Ac-GSPSIVTS αMeL DVPT Aib αMeL LQKILEQERAEKARQQAK((βA)-S-(βA)-S-γE-CO-(CH2)18-CO2H)EAAEILAQV-NH2]
